1 substance from PMC8494430, “Development of a fluorogenic ADAMTS-7 substrate” (Journal of Enzyme Inhibition and Medicinal Chemistry, 2021) can be followed below.

One assay addresses T1, ADAMTS-5 (Homo sapiens, UniProt Q9UNA0).
T1 construct: made in house
T1 sequence (Q9UNA0 262-930): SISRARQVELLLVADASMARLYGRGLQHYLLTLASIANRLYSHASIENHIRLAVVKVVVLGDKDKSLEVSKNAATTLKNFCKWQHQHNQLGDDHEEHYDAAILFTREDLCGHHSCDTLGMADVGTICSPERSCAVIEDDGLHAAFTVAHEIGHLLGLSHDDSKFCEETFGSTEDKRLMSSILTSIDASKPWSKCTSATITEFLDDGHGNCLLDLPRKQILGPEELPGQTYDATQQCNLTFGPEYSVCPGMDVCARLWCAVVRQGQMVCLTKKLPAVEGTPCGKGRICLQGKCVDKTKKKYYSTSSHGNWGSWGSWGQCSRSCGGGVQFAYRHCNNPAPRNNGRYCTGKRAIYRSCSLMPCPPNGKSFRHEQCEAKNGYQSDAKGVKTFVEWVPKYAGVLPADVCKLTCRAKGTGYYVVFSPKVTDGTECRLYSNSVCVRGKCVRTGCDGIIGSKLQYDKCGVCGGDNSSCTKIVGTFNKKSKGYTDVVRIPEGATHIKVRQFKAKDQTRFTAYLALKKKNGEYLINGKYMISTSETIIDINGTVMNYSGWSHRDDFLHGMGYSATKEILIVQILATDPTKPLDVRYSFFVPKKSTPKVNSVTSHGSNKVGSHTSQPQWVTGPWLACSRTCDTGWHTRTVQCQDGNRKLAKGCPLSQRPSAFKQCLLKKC
In words: Cleavage of ATS7FP7 by ADAMTS-5 (kinetic constants). The class given is biochemical. As to conditions: cleavage of ATS7FP7 by ADAMTS-5 (10 nM), 37 °C; curve did not reach a proper plateau. The procedure:
All enzyme assays were conducted in TNC-B buffer (50 mM Tris- HCl, pH 7.5, 150 mM NaCl, 10 mM CaCl2, and 0.02% NaN3) at 37 °C in 384 well plates (Cat. No: 784900, Greiner Bio-One, Austria). To avoid the formation of inhibitor or peptide aggregates, the detergent Brij-35 (0.05%) was added to TNC-B[13]. For inhibition studies, stock solutions of chemical compounds were prepared in dimethyl sulfoxide (DMSO) (10 mM). These were further diluted at different concentrations in TNC-B and incubated with ADAMTS-1, ADAMTS-4, ADAMTS-5, ADAMTS-7 or ADAMTS-8 (10 nM) for 1 h at 37 °C. Blank samples were prepared using buffer only and the rate of cleavage for blank reactions was subtracted from the rates measured in the presence of enzyme. Upon addition of the indicated ADAMTS-7 FRET substrates (40 µM), the fluorescence was measured immediately using a FLUOstar Omega microplate reader (BMG Labtech, Germany) with an excitation filter wavelength of 485 nm and an emission filter wavelength of 520 nm. […]
Supplementary Figure 6: Cleavage of ATS7FP7 by members of the ADAMTS family. […] Fluorescence was detected (λex = 485 nm, λem = 520 nm) for 8 h at 37°C and reported as relative fluorescence units (RFU). […]

In another assay the target is T2, ADAMTS-7 (Homo sapiens, UniProt Q9UKP4).
T2 construct: the recombinant construct ADAMTS7-T8, which lacks the C-terminal PLAC domain; made in house
T2 sequence (Q9UKP4 237-1631 limits assumed): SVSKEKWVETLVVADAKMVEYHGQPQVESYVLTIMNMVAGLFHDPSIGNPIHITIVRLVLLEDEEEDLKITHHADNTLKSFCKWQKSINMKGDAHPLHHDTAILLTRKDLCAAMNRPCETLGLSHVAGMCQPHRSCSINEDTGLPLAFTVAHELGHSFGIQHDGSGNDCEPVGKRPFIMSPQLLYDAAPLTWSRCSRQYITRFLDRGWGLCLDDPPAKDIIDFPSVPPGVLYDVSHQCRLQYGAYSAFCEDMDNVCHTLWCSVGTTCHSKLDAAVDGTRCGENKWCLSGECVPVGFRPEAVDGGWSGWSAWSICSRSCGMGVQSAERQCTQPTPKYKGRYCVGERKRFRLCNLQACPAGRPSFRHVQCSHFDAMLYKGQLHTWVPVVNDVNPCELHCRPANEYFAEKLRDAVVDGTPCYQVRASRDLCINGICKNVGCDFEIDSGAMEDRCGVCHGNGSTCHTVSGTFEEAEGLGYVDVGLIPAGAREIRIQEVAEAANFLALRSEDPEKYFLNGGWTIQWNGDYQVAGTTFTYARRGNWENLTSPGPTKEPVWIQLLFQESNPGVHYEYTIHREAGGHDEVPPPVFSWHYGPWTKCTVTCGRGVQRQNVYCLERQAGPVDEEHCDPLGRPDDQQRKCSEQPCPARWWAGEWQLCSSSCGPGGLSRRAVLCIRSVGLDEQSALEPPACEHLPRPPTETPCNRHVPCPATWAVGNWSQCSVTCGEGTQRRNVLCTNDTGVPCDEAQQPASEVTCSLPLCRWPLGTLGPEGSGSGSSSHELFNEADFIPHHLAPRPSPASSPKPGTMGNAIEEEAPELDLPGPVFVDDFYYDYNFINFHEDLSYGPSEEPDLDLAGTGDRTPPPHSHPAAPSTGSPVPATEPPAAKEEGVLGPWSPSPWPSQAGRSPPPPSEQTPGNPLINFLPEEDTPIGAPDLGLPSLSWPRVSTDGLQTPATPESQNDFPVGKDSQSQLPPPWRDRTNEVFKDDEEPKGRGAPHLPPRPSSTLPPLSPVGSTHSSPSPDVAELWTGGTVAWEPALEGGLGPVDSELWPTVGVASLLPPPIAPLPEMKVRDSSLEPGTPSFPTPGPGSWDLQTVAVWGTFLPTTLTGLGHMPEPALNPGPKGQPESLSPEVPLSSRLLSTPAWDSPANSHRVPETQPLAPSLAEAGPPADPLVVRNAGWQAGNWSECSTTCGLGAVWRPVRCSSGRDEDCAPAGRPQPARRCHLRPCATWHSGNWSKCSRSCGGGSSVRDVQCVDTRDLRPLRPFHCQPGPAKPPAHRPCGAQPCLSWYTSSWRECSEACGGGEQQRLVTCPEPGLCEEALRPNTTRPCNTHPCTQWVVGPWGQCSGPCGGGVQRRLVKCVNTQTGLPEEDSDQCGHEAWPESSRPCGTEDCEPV
As to the kind of experiment: Cleavage of FRET peptides by ADAMTS-7 (kinetic constants, cleavage rate). The class given is biochemical. The settings on record: 37 °C. As to the method: All enzyme assays were conducted in TNC-B buffer (50 mM Tris- HCl, pH 7.5, 150 mM NaCl, 10 mM CaCl2, and 0.02% NaN3) at 37 °C in 384 well plates (Cat. No: 784900, Greiner Bio-One, Austria). To avoid the formation of inhibitor or peptide aggregates, the detergent Brij-35 (0.05%) was added to TNC-B[13]. For inhibition studies, stock solutions of chemical compounds were prepared in dimethyl sulfoxide (DMSO) (10 mM). These were further diluted at different concentrations in TNC-B and incubated with ADAMTS-1, ADAMTS-4, ADAMTS-5, ADAMTS-7 or ADAMTS-8 (10 nM) for 1 h at 37 °C. Blank samples were prepared using buffer only and the rate of cleavage for blank reactions was subtracted from the rates measured in the presence of enzyme. Upon addition of the indicated ADAMTS-7 FRET substrates (40 µM), the fluorescence was measured immediately using a FLUOstar Omega microplate reader (BMG Labtech, Germany) with an excitation filter wavelength of 485 nm and an emission filter wavelength of 520 nm.
Relative Fluorescence Units (RFU) were converted into product concentration by dividing for the number of RFU generated upon complete digestion of 2.5 µM substrate. kcat values were determined by dividing Vmax by [E]t. Correction for inner filter effects was performed as before.

The mark [1] stands for this setting: cleavage of ATS7FP7 by ADAMTS-7 (10 nM).

Usually Km stands for the concentration of substrate that gives half-maximal velocity. Broadly, the kcat is the number of substrate molecules converted per active site and unit of time at saturation. As for “Glu-Ala-Ala-Ala-Arg↓Ala-Glu↓Ala-Ala-Ala-Lys [ATS7FP7]”, on ADAMTS-5, the Michaelis constant (Km) turned out to be 81 ± 24 µM and the kcat stood at 0.225 ± 0.042 s⁻¹. The “cleavage rate by ADAMTS-7” value at ADAMTS-7 (FRET peptides 40 μM, ADAMTS-7 10 nM) is “increased compared to that of ATS7FP0”. At ADAMTS-7 (setting [1]), the Km was 10.5 ± 1.5 µM and the kcat is 0.035 ± 0.0017 s⁻¹.
